From publication PMC10287898 (2023)

What was measured:
Assay in all cases: ligand-induced self-cleavage, PAGE, SYBR Gold
[1] = system: II-R1-3 (DNA, aptamer) CATGACCACTAGGAGCATCTTTGGCGAGAAGACTCTGGATTCGGGGACCAGTTGCTGCTAGGGGAATAAATCTTTGGGCACCTAGTGGTCATG; conditions: 100 mM NaCl, 40 mM MgCl2, 1 mM ZnCl2, 50 mM HEPES, pH 7.05; for ligand-induced cleavage: 30 min; for KD: apparent, half-maximal cleavage, 0.1-100 μM ligand
[2] = system: II-R1-7 (DNA, aptamer) CATGACCACTAGGAGCATCTTTGGCGATCCTCGTCAGATGGTGAAGCAGACGTTTGGCTAGGGGAATAAATCTTTGGGCACCTAGTGGTCATG; conditions: 100 mM NaCl, 40 mM MgCl2, 1 mM ZnCl2; 50 mM HEPES, pH 7.05; apparent, half-maximal cleavage
[3] = system: II-R1-1 (DNA, aptamer) CATGACCACTAGGAGCATCTTTGGCGAGATCGGGAGAATCGGTGGCATTGGTGTCTCCTAGGGGAATAAATCTTTGGGCACCTAGTGGTCATG; conditions: 100 mM NaCl, 40 mM MgCl2, 1 mM ZnCl2; 50 mM HEPES, pH 7.05; apparent, half-maximal cleavage

With NC(Cc1ccc(F)cc1)C(=O)O (racemic) the ligand-induced cleavage ([1]; 100 μM, fraction cleaved 0.235 (L-Phe 0.325)) was “yes”.

For N[C@H](Cc1ccccc1)C(=O)O, the ligand-induced cleavage ([1]; tested at 100 μM, no cleavage induced) was “no”.

N[C@@H](Cc1ccccc1)C(=O)O gave a KD [2] of 19.3 ± 2.4 µM, a KD [3] of 20.3 ± 1.6 µM and a KD [1] of 4.8 ± 1.4 µM.

With N[C@@H](Cc1ccc(O)cc1)C(=O)O the KD [2] was 118.9 ± 11.7 µM, the KD [3] was 71.6 ± 9.8 µM and the KD [1] was 6.8 ± 0.7 µM.
